Experimental data reported in US7476685B2, “Pyridine carboxamide derivatives and their use as pesticides” (Merial Limited, priority 2002, dated 2009).

How the values were obtained:
[1] = system: black bean aphids (Aphis fabae); experiment: Method B: root-systemic action against black bean aphids on field bean, preparation pipetted into the water; assay type: in vivo; settings: 10 ppm (content of active compound), 4 ml solution pipetted into bottle with Vicia faba roots, after 3 and 6 days of storage, read-out: mortality among the aphids, by root-systemic action
Procedure: Germinated field bean seeds (Vicia faba) with seed roots were transferred into brown glass bottles filled with tap water. Four milliliters of an aqueous solution of the formulated preparation to be examined were pipetted into the brown glass bottle. The field bean was then heavily populated with about 100 black bean aphids (Aphis fabae). Plants and aphids were then stored in a climatized chamber (16 hours of light/day, 25° C., 40-60% relative atmospheric humidity). After 3 and 6 days of storage, the root-systemic effect of the preparation on the aphids was determined.

[2] = system: black bean aphids (Aphis fabae); experiment: Method A: field bean plants and black bean aphids dipped into aqueous solution of the formulated preparation; assay type: in vivo; settings: 100 ppm (content of active compound), plants (Vicia faba) and aphids dipped 5 seconds, after 3 and 6 days of storage, read-out: mortality among the aphids
Procedure: Germinated field bean seeds (Vicia faba) with seed roots were transferred into brown glass bottles filled with tap water and then populated with about 100 black bean aphids (Aphis fabae). Plants and aphids were then dipped into an aqueous solution of the formulated preparation to be examined for 5 seconds. After they had drained, plants and animals were stored in a climatized chamber (16 hours of light/day, 25° C., 40-60% relative atmospheric humidity). After 3 and 6 days of storage, the effect of the preparation on the aphids was determined.

| SMILES | mortality at 10 ppm [1] | mortality at 100 ppm [2] |
| --- | --- | --- |
| O=C(NC(=O)N(CCO)Cc1ccccc1)c1cnccc1C(F)(F)F [Compound A-862, 1-benzyl-1-(2-hydroxyethyl)-3-(4-trifluoromethyl-3-pyridylcarbonyl)urea] | ≥ 80% | ≥ 50% |
| CC(C)N(O)C(=O)NC(=O)c1cnccc1C(F)(F)F [Compound A-540, 1-hydroxyl-1-isopropyl-3-(4-trifluoromethyl-3-pyridylcarbonyl)urea] | ≥ 80% | ≥ 50% |
| CON(C)C(=O)NC(=O)c1cnccc1C(F)(F)F [Compound A-313, 1-methyl-1-methoxy-3-(4-trifluoromethyl-3-pyridylcarbonyl)urea] | ≥ 80% | – |
| O=C(NC(=S)OCC(F)(F)F)c1cnccc1C(F)(F)F [Compound X-45, 2,2,2-trifluoroethyl N-(4-trifluoromethyl-3-pyridylcarbonyl)thiocarbamate] | ≥ 80% | ≥ 50% |
| CC(C)N1OCCN(C(=O)c2cnccc2C(F)(F)F)C1=O [Compound U-3, 2-isopropyl-4-(4-trifluoromethyl-3-pyridylcarbonyl)-perhydro-1,2,4-oxadiazin-3-one] | ≥ 80% | ≥ 50% |
| CN(C(=S)NC(=O)c1cnccc1C(F)(F)F)c1ccccc1 [Compound B-349, 1-methyl-1-phenyl-3-(4-trifluoromethyl-3-pyridylcarbonyl)thiourea] | ≥ 80% | ≥ 50% |
| C=CCN(C(=O)c1cnccc1C(F)(F)F)C(=O)N(C)OC [Compound E-85, 1-methyl-1-methoxy-3-allyl-3-(4-trifluoromethyl-3-pyridylcarbonyl)urea] | ≥ 80% | ≥ 50% |
